Measured values from patent US10858335B2 (Rigel Pharmaceuticals, Inc., priority 2014, dated 2020).
Structures can show the parent of a compound that is named as a salt.

test system: GDF8 signaling (p-SMAD-3 (Ser423/425)); assay: AlphaScreen SureFire SMAD3 (p-Ser423/425) assay, GDF8-stimulated cells (GDF pSMAD); format: cell-based; details: Mus musculus, MPC-11, MPC11; GDF8-stimulated; p-SMAD3 AlphaScreen; read-out: GDF pSMAD (MPC11) (inhibition of GDF8 signaling)

IC50 [nM]	Compound
224	COc1cccc(-c2ncccc2-c2cnc3[nH]ncc3c2)c1 [Compound 155, 5-(2-(3-Methoxyphenyl)pyridin-3-yl)-1H-pyrazolo[3,4-b]pyridine]
1790	Oc1cccc(-c2ncccc2-c2cnc3[nH]ncc3c2)c1 [Compound 156, 3-(3-(1H-Pyrazolo[3,4-b]pyridin-5-yl)pyridin-2-yl)phenol]
1560	COc1cc(-c2ncccc2-c2cnc3[nH]ncc3c2)ccc1F [Compound 157, 5-(2-(4-Fluoro-3-methoxyphenyl)pyridin-3-yl)-1H-pyrazolo[3,4-b]pyridine]
1860	N#Cc1cc(-c2ncccc2-c2cnc3[nH]ncc3c2)ccc1F [Compound 158, 5-(3-(1H-Pyrazolo[3,4-b]pyridin-5-yl)pyridin-2-yl)-2-fluorobenzonitrile]
130	Cc1cc(-c2ncccc2-c2ccc3ncsc3c2)ccc1F [Compound 159, 6-(2-(4-Fluoro-3-methylphenyl)pyridin-3-yl)benzo[d]thiazole]
84.3	Cc1cccc(-c2ncccc2-c2ccc3ncsc3c2)c1 [Compound 160, 6-(2-m-Tolylpyridin-3-yl)benzo[d]thiazole]
9100	Cc1cc(-c2ncccc2-c2ccc3nncn3c2)ccc1F [Compound 161, 6-(2-(4-Fluoro-3-methylphenyl)pyridin-3-yl)-[1,2,4]triazolo[4,3-a]pyridine]
5660	Cc1cccc(-c2ncccc2-c2ccc3nncn3c2)c1 [Compound 162, 6-(2-m-Tolylpyridin-3-yl)-[1,2,4]triazolo[4,3-a]pyridine]
265	Cc1cc(-c2ncccc2-c2ccc3nccn3c2)ccc1F [Compound 165, 6-(2-(4-Fluoro-3-methylphenyl)pyridin-3-yl)imidazo[1,2-a]pyridine]
109	Cc1cccc(-c2ncccc2-c2ccc3nccn3c2)c1 [Compound 166, 6-(2-m-Tolylpyridin-3-yl)imidazo[1,2-a]pyridine]
17500	CC(C)c1cccc(-c2ncccc2-c2cnc3[nH]ncc3c2)c1 [Compound 167, 5-(2-(3-Isopropylphenyl)pyridin-3-yl)-1H-pyrazolo[3,4-b]pyridine]
1960	C1=C(c2cccc(-c3ncccc3-c3cnc4[nH]ncc4c3)c2)CCC1 [Compound 170, 5-(2-(3-Cyclopentenylphenyl)pyridin-3-yl)-1H-pyrazolo[3,4-b]pyridine]
1830	Cc1cc(-c2ncccc2-c2cc3cn[nH]c3cc2C)ccc1F [Compound 173, 5-(2-(4-Fluoro-3-methylphenyl)pyridin-3-yl)-6-methyl-1H-indazole]
1180	Cc1cccc(-c2ncccc2-c2cc3cn[nH]c3cc2C)c1 [Compound 174, 6-Methyl-5-(2-m-tolylpyridin-3-yl)-1H-indazole]
118	Cc1cc(-c2ncccc2-c2cc(C)c3[nH]ncc3c2)ccc1F [Compound 175, 5-(2-(4-Fluoro-3-methylphenyl)pyridin-3-yl)-7-methyl-1H-indazole]
57	Cc1cccc(-c2ncccc2-c2cc(C)c3[nH]ncc3c2)c1 [Compound 176, 7-Methyl-5-(2-m-tolylpyridin-3-yl)-1H-indazole]
363	Cc1cc(-c2ncccc2-c2ccc3nc[nH]c3c2)ccc1F [Compound 177, 6-(2-(4-Fluoro-3-methylphenyl)pyridin-3-yl)-1H-benzo[d]imidazole]
187	Cc1cccc(-c2ncccc2-c2ccc3nc[nH]c3c2)c1 [Compound 178, 6-(2-m-Tolylpyridin-3-yl)-1H-benzo[d]imidazole]
422	Cc1cc(-c2ncccc2-c2ccc3ncoc3c2)ccc1F [Compound 180, 6-(2-(4-Fluoro-3-methylphenyl)pyridin-3-yl)benzo[d]oxazole]
539	Cc1cccc(-c2ncccc2-c2ccc3ncoc3c2)c1 [Compound 181, 6-(2-m-Tolylpyridin-3-yl)benzo[d]oxazole]
12900	CCn1ncc2cc(-c3cccnc3-c3ccc(F)c(C)c3)ccc21 [Compound 184, 1-Ethyl-5-(2-(4-fluoro-3-methylphenyl)pyridin-3-yl)-1H-indazole]
8860	CCn1ncc2cc(-c3cccnc3-c3cccc(C)c3)ccc21 [Compound 185, 1-Ethyl-5-(2-m-tolylpyridin-3-yl)-1H-indazole]
300	Cc1cccc(-c2ncccc2-c2ccc3ncn(C)c3c2)c1 [Compound 186, 1-methyl-6-(2-m-tolylpyridin-3-yl)-1H-benzo[d]imidazole]
228	Cc1cc(-c2ncccc2-c2ccc3ncn(C)c3c2)ccc1F [Compound 187, 6-(2-(4-Fluoro-3-methylphenyl)pyridin-3-yl)-1-methyl-1H-benzo[d]imidazole]
663	Cc1cc(-c2ncccc2-c2ccc3ncnn3c2)ccc1F [Compound 191, 6-(2-(4-Fluoro-3-methylphenyl)pyridin-3-yl)-[1,2,4]triazolo[1,5-a]pyridine]

IC50 [nM]	Compound
347	Cc1cccc(-c2ncccc2-c2ccc3ncnn3c2)c1 [Compound 192, 6-(2-m-Tolylpyridin-3-yl)-[1,2,4]triazolo[1,5-a]pyridine]
243	c1cc(-c2ncccc2-c2ccc3nccn3c2)cc(C2CC2)c1 [Compound 193, 6-(2-(3-Cyclopropylphenyl)pyridin-3-yl)H-imidazo[1,2-a]pyridine]
149	c1cc(-c2ncccc2-c2ccc3ncsc3c2)cc(C2CC2)c1 [Compound 194, 6-(2-(3-Cyclopropylphenyl)pyridin-3-yl)benzo[d]thiazole]
359	FC(F)(F)c1cccc(-c2ncccc2-c2ccc3[nH]ncc3c2)c1 [Compound 197, 5-(2-(3-(Trifluoromethyl)phenyl)pyridin-3-yl)-1H-indazole]
440	FC(F)(F)c1cccc(-c2ncccc2-c2cnc3[nH]ncc3c2)c1 [Compound 198, 5-(2-(3-(Trifluoromethyl)phenyl)pyridin-3-yl)-1H-pyrazolo[3,4-b]pyridine]
1160	FC(F)(F)c1cccc(-c2ncccc2-c2ccc3nccn3c2)c1 [Compound 199, 6-(2-(3-(Trifluoromethyl)phenyl)pyridin-3-yl)H-imidazo[1,2-a]pyridine]
260	Cn1cnc2ccc(-c3cccnc3-c3cccc(C4CC4)c3)cc21 [Compound 200, 6-(2-(3-Cyclopropylphenyl)pyridin-3-yl)-1-methyl-1H-benzo[d]imidazole]
18200	Cc1cc(-c2ncccc2-c2ccc3ccncc3c2)ccc1F [Compound 209, 7-(2-(4-Fluoro-3-methylphenyl)pyridin-3-yl)isoquinoline]
12700	Cc1cccc(-c2ncccc2-c2ccc3ccncc3c2)c1 [Compound 210, 7-(2-m-Tolylpyridin-3-yl)isoquinoline]
3230	Cc1cccc(-c2ncccc2-c2ccc3ncn(CCCO)c3c2)c1 [compound 38]
8230	Cc1cccc(-c2ncccc2-c2ccc3ncn(C(C)C)c3c2)c1 [compound 47]
32.6	Cc1cccc(-c2ncccc2-c2ccc3[nH]ncc3c2)n1 [compound 116, 5-(2-(6-Methylpyridin-2-yl)pyridin-3-yl)-1H-indazole]
337	Cc1cc(-c2ncccc2-c2ccc3c(cnn3C(=O)OC[C@@H](N)Cc3c[nH]c4ccccc34)c2)ccc1F [compound 179, (S)-2-Amino-3-(1H-indol-3-yl)propyl 5-(2-(4-fluoro-3-methylphenyl)pyridin-3-yl)-1H-indazole-1-carboxylate Trifluoroacetic Acid Salt]
1550	COC(=O)c1cc(-c2cccnc2-c2ccc(F)c(C)c2)cc2cn[nH]c12 [compound 190, Methyl 5-(2-(4-fluoro-3-methylphenyl)pyridin-3-yl)-1H-indazole-7-carboxylate]
9520	Cc1cc(-c2ncccc2-c2cc(C(=O)O)c3[nH]ncc3c2)ccc1F [compound 195, 5-(2-(4-Fluoro-3-methylphenyl)pyridin-3-yl)-1H-indazole-7-carboxylic acid]
198	Fc1ccc(-c2ncccc2-c2ccc3[nH]ncc3c2)cc1C1CC1 [compound 211, 5-(2-(3-Cyclopropyl-4-fluorophenyl)pyridin-3-yl)-1H-indazole]
18400	Cc1cc(-c2ncc(NC3CC3)cc2-c2ccc3[nH]ncc3c2)ccc1F [compound 212, N-Cyclopropyl-6-(4-fluoro-3-methylphenyl)-5-(1H-indazol-5-yl)pyridin-3-amine]
4440	CC(C)NC(=O)Nc1cnc(-c2cccc(C3CC3)c2)c(-c2ccc3[nH]ncc3c2)c1 [compound 213, 1-(6-(3-Cyclopropylphenyl)-5-(1H-indazol-5-yl)pyridin-3-yl)-3-isopropylurea]
2640	Cc1cccc(-c2ncc(NC(=O)NC(C)C)cc2-c2ccc3[nH]ncc3c2)c1 [compound 214, 1-(5-(1H-Indazol-5-yl)-6-(m-tolyl)pyridin-3-yl)-3-isopropylurea]
15700	Cc1cc(-c2ncc(NC(=O)NC(C)C)cc2-c2ccc3c(cnn3C(=O)NC(C)C)c2)ccc1F [compound 215, 5-(2-(4-Fluoro-3-methylphenyl)-5-(3-isopropylureido)pyridin-3-yl)-N-isopropyl-1H-indazole-1-carboxamide]
736	Fc1ccc(-c2ncccc2-c2ccc3ncccc3n2)cc1C1CC1 [compound 216, 2-(2-(3-cyclopropyl-4-fluorophenyl)pyridin-3-yl)-1,5-naphthyridine]
841	Fc1ccc(-c2ncccc2-c2ccc3ncnn3c2)cc1C1CC1 [compound 217, 6-(2-(3-Cyclopropyl-4-fluorophenyl)pyridin-3-yl)-[1,2,4]triazolo[1,5-a]pyridine]
446	Fc1ccc(-c2ncccc2-c2ccc3nccn3c2)cc1C1CC1 [compound 218, 6-(2-(3-Cyclopropyl-4-fluorophenyl)pyridin-3-yl)imidazo[1,2-a]pyridine]
6770	Cc1cc(-c2ncc(NC(=O)N3CCOCC3)cc2-c2ccc3nccn3c2)ccc1F [compound 219, N-(6-(4-Fluoro-3-methylphenyl)-5-(imidazo[1,2-a]pyridin-6-yl)pyridin-3-yl)morpholine-4-carboxamide]
